The source of these data is ChEMBL document CHEMBL2086344, “Halicloic acids A and B isolated from the marine sponge Haliclona sp. collected in the Philippines inhibit indoleamine 2,3-dioxygenase” (J Nat Prod, 2012).

pIC50: −log10 of the molar value. Activity calls are given as the source filed them. The calls are words filed in the database; no cut-off is given here.

The target of one assay is T1, Indoleamine 2,3-dioxygenase 1 (Homo sapiens, UniProt P14902). Briefly: Inhibition of recombinant human IDO expressed in Escherichia coli using L-tryptophan as substrate after 60 mins by spectrophotometry.
Target sequence in this assay (P14902 whole entry): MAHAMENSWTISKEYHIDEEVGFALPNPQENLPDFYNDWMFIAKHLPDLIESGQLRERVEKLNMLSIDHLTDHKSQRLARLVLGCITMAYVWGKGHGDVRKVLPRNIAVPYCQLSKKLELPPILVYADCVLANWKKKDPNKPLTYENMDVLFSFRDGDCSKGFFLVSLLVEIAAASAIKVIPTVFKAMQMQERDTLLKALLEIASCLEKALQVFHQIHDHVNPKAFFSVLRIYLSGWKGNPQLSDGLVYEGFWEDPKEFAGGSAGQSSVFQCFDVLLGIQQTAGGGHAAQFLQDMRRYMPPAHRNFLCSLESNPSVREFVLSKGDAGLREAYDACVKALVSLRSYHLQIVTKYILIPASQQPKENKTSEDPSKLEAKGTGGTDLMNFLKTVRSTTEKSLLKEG
As usually defined, the pIC50 is the negative decadic logarithm of the IC50, by convention in mol/L. Regarding `CC1=CCC[C@@H](C)[C@]1(C)CC[C@@]1(C)[C@@H]2CC[C@]3(C)[C@H](CC[C@]4(C)c5c(C=O)ccc(O)c5C[C@@H]34)[C@@]2(C)CC[C@@H]1O`, the pIC50 was 4.54.
On the same count and under the same terms, for `CC1=CCC[C@@H](C)[C@]1(C)CC[C@@]1(C)[C@@H]2CC[C@]3(C)[C@H](CC[C@]4(C)c5c(C(O)C(=O)O)ccc(O)c5C[C@@H]34)[C@@]2(C)CC[C@@H]1O` (relative stereo) the value was 4.96; for `CC1(C)CCC[C@]2(C)O[C@H]3CC[C@@]4(C)[C@@H](CC[C@]5(C)[C@@H]4CC[C@]4(C)c6c(C(O)C(=O)O)ccc(O)c6C[C@@H]54)[C@]3(C)CC[C@@H]12` (stereo partly drawn) [HALICLOIC ACID A], 5.00.
The same measure, in the same setting: for `CC1(C)CCC[C@]2(C)O[C@H]3CC[C@@]4(C)[C@@H](CC[C@]5(C)[C@@H]4CC[C@]4(C)c6c(C=O)ccc(O)c6C[C@@H]54)[C@]3(C)CC[C@@H]12` the value was 4.28.

For another assay, the target named is T1, Indoleamine 2,3-dioxygenase 1. In words: Inhibition of recombinant human IDO expressed in Escherichia coli using L-tryptophan as substrate at 200 uM after 60 mins by spectrophotometry.
Target sequence in this assay (P14902 whole entry, looked up): as the sequence (P14902 whole entry) above
`O=C(O)C(O)c1ccc(O)cc1` (stereo not drawn): the inhibition entry was “inactive”.
Same read-out and setting: for `O=Cc1ccccc1` the value was “inactive”.
The same measure, in the same setting: for `O=Cc1ccc(O)cc1` the value was “inactive”; for `O=C(O)C(O)c1ccccc1` (stereo not drawn), “inactive”.
